Results published in ChEMBL document CHEMBL5150077, “Identification of TUL01101: A Novel Potent and Selective JAK1 Inhibitor for the Treatment of Rheumatoid Arthritis” (J Med Chem, 2022).
The source made the active and inactive calls. The calls are words filed in the database; no cut-off is given here.

How the values were obtained:
in vivo [1] = conditions: C57BL/6, mouse, po, 15 mg/kg
Mus musculus [2] = assay: Antiarthritic activity in collagen-induced rheumatoid arthritis DBA/1 mouse model assessed as recovery of body weight at 15 mg/kg, po BID administered for 14 days starting from 7 days before immunization to 21 days after immunization and measured on day 22 post immunization; type: functional, organism-based; conditions: time 14.0 day
Mus musculus [3] = assay: (§1) Antiarthritic activity in collagen-induced rheumatoid arthritis DBA/1 mouse model assessed as reduction in incidence rate at 15 mg/kg, po BID administered for 14 days starting from 7 days before immunization to 21 days after immunization and measured on day 41 post immunization; type: functional; design: scale not given: the % may be the effect or the level left; conditions: time 14 day
[4] = target: Tyrosine-protein kinase ITK/TSK (Homo sapiens) (UniProt Q08881); assay: Inhibition of human ITK assessed as residual activity at 30 uM relative to control
[5] = target: Misshapen-like kinase 1 (Homo sapiens) (UniProt Q8N4C8); assay: Inhibition of human MINK assessed as residual activity at 30 uM relative to control
[6] = target: Aurora kinase A (Homo sapiens) (UniProt O14965); assay: Inhibition of human Aurora A assessed as residual activity at 30 uM relative to control
Chain of Aurora kinase A (Homo sapiens) (O14965 whole entry): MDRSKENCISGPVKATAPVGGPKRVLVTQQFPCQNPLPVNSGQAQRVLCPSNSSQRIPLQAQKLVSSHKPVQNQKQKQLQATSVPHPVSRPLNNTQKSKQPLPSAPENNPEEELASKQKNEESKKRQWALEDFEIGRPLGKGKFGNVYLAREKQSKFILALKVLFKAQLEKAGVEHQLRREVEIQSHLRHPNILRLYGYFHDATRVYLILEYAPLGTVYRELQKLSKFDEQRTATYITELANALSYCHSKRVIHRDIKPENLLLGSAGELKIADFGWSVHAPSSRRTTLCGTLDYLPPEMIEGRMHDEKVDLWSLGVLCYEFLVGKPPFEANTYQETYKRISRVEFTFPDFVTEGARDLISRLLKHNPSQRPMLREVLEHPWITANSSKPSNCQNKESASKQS

Rattus norvegicus [7] = assay: Antiarthritic activity in adjuvant-induced arthritis rat model assessed as clinical score at 3 mg/kg, po administered twice a day for 14 days starting from day 13 to 27 post immunization and measured every 3 days a week; type: functional; conditions: time 14 day
[8] = target: Serine/threonine-protein kinase mTOR (Homo sapiens) (UniProt P42345); assay: Inhibition of human mTOR assessed as residual activity at 30 uM relative to control
[9] = target: ALK tyrosine kinase receptor (Homo sapiens) (UniProt Q9UM73); assay: Inhibition of human ALK assessed as residual activity at 30 uM relative to control
Chain of ALK tyrosine kinase receptor (Homo sapiens) (Q9UM73 19-1620 limits assumed): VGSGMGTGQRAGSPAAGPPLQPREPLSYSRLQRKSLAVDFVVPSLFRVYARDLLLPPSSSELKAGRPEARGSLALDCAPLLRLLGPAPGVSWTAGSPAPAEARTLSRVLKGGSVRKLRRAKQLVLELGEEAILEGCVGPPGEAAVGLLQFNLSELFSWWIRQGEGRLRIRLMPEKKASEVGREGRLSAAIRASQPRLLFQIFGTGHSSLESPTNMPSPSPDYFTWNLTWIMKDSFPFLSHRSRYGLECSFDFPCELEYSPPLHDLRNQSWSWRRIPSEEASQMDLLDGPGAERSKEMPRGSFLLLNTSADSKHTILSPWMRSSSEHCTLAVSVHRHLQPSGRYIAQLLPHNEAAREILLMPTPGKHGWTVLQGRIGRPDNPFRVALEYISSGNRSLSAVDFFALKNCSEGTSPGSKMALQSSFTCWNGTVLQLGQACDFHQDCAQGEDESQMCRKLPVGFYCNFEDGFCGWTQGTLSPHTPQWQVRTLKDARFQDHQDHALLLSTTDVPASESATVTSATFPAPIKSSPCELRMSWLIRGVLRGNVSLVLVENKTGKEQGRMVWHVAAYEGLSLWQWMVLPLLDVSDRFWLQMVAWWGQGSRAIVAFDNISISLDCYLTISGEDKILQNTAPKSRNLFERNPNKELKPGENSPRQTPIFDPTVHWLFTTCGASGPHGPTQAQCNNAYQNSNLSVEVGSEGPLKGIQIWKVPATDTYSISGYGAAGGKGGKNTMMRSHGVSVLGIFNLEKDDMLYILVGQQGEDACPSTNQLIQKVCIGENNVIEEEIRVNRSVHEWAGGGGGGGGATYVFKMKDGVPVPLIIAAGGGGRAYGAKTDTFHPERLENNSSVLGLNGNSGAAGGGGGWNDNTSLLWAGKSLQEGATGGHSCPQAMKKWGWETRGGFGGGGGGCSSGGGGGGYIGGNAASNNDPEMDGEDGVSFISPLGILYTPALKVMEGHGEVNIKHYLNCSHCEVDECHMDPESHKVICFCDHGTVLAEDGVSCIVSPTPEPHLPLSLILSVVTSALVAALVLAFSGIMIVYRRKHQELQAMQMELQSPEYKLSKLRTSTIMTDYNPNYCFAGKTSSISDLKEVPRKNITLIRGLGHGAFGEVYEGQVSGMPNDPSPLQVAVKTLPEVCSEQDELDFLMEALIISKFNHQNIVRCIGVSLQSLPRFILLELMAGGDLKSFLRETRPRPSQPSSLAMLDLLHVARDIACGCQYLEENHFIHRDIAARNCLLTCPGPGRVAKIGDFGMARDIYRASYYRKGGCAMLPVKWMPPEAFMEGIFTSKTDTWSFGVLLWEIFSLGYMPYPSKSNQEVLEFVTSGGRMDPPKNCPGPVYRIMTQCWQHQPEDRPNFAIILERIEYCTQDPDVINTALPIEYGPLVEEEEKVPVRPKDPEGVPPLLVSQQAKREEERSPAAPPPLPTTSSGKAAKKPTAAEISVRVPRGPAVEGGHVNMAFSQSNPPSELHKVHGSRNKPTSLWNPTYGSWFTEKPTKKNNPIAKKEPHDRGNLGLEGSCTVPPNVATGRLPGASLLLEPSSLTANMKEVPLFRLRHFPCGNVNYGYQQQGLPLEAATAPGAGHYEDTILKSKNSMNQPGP

[10] = target: Hepatocyte growth factor receptor (Homo sapiens) (UniProt P08581); assay: Inhibition of human MET assessed as residual activity at 30 uM relative to control
[11] = Toxicity in rat assessed as reduction in body weight at 10 mg/kg/day, po administered via gavage once a day pretreated for 9 weeks prior to co-cage and measured on day 74 relative to control; type: organism-based; design: scale not given: the % may be the effect or the level left; conditions: in vivo, 1776 h, time 74 day
[12] = target: Insulin-like growth factor 1 receptor (Homo sapiens) (UniProt P08069); assay: Inhibition of human IGF1R assessed as residual activity at 30 uM relative to control
Chain of Insulin-like growth factor 1 receptor (Homo sapiens) (P08069 31-736 limits assumed): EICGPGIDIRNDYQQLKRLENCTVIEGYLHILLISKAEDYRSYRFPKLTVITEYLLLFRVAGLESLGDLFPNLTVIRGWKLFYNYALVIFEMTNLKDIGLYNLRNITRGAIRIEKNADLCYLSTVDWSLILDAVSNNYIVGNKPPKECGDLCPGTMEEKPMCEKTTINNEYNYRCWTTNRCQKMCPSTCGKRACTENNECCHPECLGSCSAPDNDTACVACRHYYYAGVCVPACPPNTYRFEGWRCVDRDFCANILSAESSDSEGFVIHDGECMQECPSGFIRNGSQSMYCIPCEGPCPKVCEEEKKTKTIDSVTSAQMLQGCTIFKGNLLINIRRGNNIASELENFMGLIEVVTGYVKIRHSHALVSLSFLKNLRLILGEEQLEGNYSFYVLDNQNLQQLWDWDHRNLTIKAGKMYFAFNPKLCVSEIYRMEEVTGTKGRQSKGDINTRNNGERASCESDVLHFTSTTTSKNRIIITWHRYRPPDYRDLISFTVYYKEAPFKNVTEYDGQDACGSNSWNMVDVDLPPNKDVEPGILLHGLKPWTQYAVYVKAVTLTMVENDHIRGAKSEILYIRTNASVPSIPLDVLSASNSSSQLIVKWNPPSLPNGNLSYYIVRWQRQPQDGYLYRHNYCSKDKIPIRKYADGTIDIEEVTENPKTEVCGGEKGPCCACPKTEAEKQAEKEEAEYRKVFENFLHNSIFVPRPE
Chain of Insulin-like growth factor 1 receptor (Homo sapiens) (P08069 741-1367 limits assumed): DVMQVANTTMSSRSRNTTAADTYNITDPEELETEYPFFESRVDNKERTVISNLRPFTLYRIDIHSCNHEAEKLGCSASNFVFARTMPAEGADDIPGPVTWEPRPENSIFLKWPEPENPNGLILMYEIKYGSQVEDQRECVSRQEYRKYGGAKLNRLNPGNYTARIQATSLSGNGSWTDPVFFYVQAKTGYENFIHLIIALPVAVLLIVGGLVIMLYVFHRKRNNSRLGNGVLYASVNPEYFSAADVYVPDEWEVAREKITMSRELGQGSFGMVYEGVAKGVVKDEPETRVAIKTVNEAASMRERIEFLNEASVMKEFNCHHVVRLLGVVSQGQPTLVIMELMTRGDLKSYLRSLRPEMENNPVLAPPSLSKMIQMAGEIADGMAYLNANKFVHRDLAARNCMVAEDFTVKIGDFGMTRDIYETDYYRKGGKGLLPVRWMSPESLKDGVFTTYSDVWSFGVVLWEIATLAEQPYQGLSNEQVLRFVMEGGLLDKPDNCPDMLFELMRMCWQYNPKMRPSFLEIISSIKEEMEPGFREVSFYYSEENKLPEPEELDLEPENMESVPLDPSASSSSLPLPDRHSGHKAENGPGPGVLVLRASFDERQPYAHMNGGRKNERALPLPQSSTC

in vivo [13] = conditions: Sprague-Dawley, rat, po, 10 mg/kg
[14] = Toxicity in rat assessed as reduction in body weight at 10 mg/kg/day, po administered via gavage once a day pretreated for 9 weeks prior to co-cage and measured on day 84 relative to control; type: organism-based; design: scale not given: the % may be the effect or the level left; conditions: in vivo, 2016 h, time 84 day
[15] = Elimination half life in Sprague-Dawley rat at 10 mg/kg, po measured for 24 hrs by LC-MS/MS analysis; type: ADME, organism-based; conditions: in vivo, read-out: beta t1/2 (converted)
[16] = target: Platelet-derived growth factor receptor beta (Homo sapiens) (UniProt P09619); assay: Inhibition of human PDGFRbeta assessed as residual activity at 30 uM relative to control
[17] = target: Serine/threonine-protein kinase 26 (Homo sapiens) (UniProt Q9P289); assay: Inhibition of human MST4 assessed as residual activity at 30 uM relative to control
Chain of Serine/threonine-protein kinase 26 (Homo sapiens) (Q9P289 2-416 limits assumed): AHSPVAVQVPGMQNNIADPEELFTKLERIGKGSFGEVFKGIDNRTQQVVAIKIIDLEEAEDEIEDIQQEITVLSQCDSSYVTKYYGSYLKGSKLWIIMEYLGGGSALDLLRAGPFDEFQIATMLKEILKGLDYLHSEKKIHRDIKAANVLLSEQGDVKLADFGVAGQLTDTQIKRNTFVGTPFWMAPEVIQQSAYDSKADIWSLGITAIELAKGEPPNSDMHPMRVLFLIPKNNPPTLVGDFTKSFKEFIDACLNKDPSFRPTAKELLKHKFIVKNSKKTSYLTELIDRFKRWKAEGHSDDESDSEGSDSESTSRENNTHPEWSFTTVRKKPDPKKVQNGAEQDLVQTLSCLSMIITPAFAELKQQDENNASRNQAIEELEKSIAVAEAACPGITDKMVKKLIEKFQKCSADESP

Rattus norvegicus [18] = assay: Antiarthritic activity in adjuvant-induced arthritis rat model assessed as clinical score at 1 mg/kg, po administered twice a day for 14 days starting from day 13 to 27 post immunization and measured every 3 days a week; type: functional; conditions: time 14 day
[19] = target: Calcium/calmodulin-dependent protein kinase type II subunit alpha (Homo sapiens) (UniProt Q9UQM7); assay: Inhibition of human CAMKIIalpha assessed as residual activity at 30 uM relative to control
Chain of Calcium/calmodulin-dependent protein kinase type II subunit alpha (Homo sapiens) (Q9UQM7 whole entry): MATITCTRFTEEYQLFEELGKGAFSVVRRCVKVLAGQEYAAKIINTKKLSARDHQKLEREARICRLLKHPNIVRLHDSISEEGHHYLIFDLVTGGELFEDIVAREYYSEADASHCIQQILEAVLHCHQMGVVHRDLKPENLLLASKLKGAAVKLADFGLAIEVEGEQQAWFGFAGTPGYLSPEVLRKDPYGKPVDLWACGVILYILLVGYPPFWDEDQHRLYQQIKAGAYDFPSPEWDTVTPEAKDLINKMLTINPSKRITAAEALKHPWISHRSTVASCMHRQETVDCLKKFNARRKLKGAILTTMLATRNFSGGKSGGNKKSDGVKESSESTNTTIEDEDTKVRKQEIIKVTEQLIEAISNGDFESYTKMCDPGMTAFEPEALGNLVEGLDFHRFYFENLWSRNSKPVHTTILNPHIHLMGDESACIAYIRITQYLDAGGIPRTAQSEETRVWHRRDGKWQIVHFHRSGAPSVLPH

Mus musculus [20] = assay: as §1, with “reduction in clinical score at 15” for “reduction in incidence rate at 15”, “post immunization (reference value: 5.75)” for “post immunization”; type: functional; conditions: time 14 day
[21] = Toxicity in rat assessed as reduction in food intake at 10 mg/kg/day, po administered via gavage once a day pretreated for 9 weeks prior to co-cage and measured on day 84; type: organism-based; design: scale not given: the % may be the effect or the level left; conditions: in vivo, 2016 h, time 84 day
in vivo [22] = conditions: beagle, dog, po, 5 mg/kg
[23] = target: Platelet-derived growth factor receptor alpha (Homo sapiens) (UniProt P16234); assay: Inhibition of human PDGFRalpha assessed as residual activity at 30 uM relative to control
[24] = target: Tyrosine-protein kinase Lck (Homo sapiens) (UniProt P06239); assay: Inhibition of human LCK assessed as residual activity at 30 uM relative to control
[25] = AUC in beagle dog at 5 mg/kg, po measured for 24 hrs by LC-MS/MS analysis; type: ADME, organism-based, Canis lupus familiaris; design: time 24 hrs, dose 5 mg/kg, route po; conditions: in vivo
[26] = target: 5'-AMP-activated protein kinase catalytic subunit alpha-1 (Homo sapiens) (UniProt Q13131); assay: Inhibition of human AMPKalpha1 assessed as residual activity at 30 uM relative to control
[27] = Volume of distribution at steady state in beagle dog at 0.2 mg/kg, iv measured for 24 hrs by LC-MS/MS analysis; type: ADME, organism-based, Canis lupus familiaris; conditions: in vivo, read-out: Vdss
[28] = target: High affinity nerve growth factor receptor (Homo sapiens) (UniProt P04629); assay: Inhibition of human TRK assessed as residual activity at 30 uM relative to control
Chain of High affinity nerve growth factor receptor (Homo sapiens) (P04629 33-796 limits assumed): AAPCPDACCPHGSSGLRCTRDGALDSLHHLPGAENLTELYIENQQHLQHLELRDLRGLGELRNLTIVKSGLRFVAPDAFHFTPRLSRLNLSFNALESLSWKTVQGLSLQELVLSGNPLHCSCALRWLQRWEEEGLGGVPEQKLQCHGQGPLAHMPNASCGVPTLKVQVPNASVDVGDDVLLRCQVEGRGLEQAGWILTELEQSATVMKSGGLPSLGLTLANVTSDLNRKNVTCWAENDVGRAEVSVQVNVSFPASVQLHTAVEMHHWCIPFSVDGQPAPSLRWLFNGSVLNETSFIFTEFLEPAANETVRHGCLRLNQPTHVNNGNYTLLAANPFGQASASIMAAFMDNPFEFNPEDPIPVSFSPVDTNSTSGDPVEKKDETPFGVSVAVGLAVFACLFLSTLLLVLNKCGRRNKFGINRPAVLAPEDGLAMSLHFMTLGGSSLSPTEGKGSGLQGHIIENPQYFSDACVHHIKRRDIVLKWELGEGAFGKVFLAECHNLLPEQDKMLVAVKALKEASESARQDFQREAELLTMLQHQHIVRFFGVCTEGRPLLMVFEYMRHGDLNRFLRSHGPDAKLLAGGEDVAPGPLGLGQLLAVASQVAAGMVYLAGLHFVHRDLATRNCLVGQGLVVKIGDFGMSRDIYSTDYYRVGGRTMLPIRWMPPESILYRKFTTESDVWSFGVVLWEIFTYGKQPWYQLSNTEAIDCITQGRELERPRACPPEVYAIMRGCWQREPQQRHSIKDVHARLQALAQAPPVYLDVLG

[29] = target: [Pyruvate dehydrogenase (acetyl-transferring)] kinase isozyme 1, mitochondrial (Homo sapiens) (UniProt Q15118); assay: Inhibition of human PDK1 assessed as residual activity at 30 uM relative to control
[30] = target: Serine/threonine-protein kinase PAK 2 (Homo sapiens) (UniProt Q13177); assay: Inhibition of human PAK2 assessed as residual activity at 30 uM relative to control
[31] = target: Tyrosine-protein kinase Blk (Homo sapiens) (UniProt P51451); assay: Inhibition of human BLK assessed as residual activity at 30 uM relative to control
[32] = target: Inhibitor of nuclear factor kappa-B kinase subunit beta (Homo sapiens) (UniProt O14920); assay: Inhibition of human IKKbeta assessed as residual activity at 30 uM relative to control
Rattus norvegicus [33] = assay: Antiarthritic activity in adjuvant-induced arthritis rat model assessed as clinical score at 10 mg/kg, po administered twice a day for 14 days starting from day 13 to 27 post immunization and measured every 3 days a week; type: functional; conditions: time 14 day
[34] = target: Vascular endothelial growth factor receptor 2 (Homo sapiens) (UniProt P35968); assay: Inhibition of human KDR assessed as residual activity at 30 uM relative to control
[35] = AUC in Sprague-Dawley rat at 10 mg/kg, po measured for 24 hrs by LC-MS/MS analysis; type: ADME, organism-based; design: time 24 hrs, dose 10 mg/kg, route po; conditions: in vivo
in vivo [36] = conditions: Sprague-Dawley, rat, po, 10 mg/kg; remark: listed apart in the source
[37] = target: Serine/threonine-protein kinase B-raf (Homo sapiens) (UniProt P15056); assay: Inhibition of human B-raf assessed as residual activity at 30 uM relative to control

O=C(Nc1nc2cccc([C@H]3CC[C@@H](NC(=O)[C@@H]4CC4(F)F)CC3)n2n1)C1CC1
Cmax at 24 h (in vivo [1]): 25.7 µM

O=C(Nc1nc2cccc(C3CCC4(CC3)CCN(C(=O)[C@@H]3CC3(F)F)CC4)n2n1)C1CC1
Activity (Mus musculus [2]): Active | Activity (Mus musculus [3]): 100% | Cmax at 24 h (in vivo [1]): 7.38 µM

O=C(Nc1nc2cccc(C3CCC4(CC3)CN(C(=O)[C@@H]3CC3(F)F)C4)n2n1)C1CC1
Activity [4]: 87% | Activity [5]: 107% | Activity [6]: 57% | Activity (Rattus norvegicus [7]): 3.9 | Activity [8]: 104% | Activity [9]: 101% | Activity [10]: 90% | Activity [11]: 4.99% | Activity [12]: 129% | Cmax at 24 h (in vivo [13]): 4960 ng/mL | Activity [14]: 5.53% | half-life [15]: 3.06 h | Activity (Mus musculus [2]): Active | Activity [16]: 85% | Activity [17]: 99% | Activity (Rattus norvegicus [18]): 5.4 | Activity [19]: 88% | Activity (Mus musculus [20]): 1.5 | Activity [21]: 7.8% | Cmax at 24 h (in vivo [22]): 2750 ng/mL | Activity [23]: 102% | Activity [24]: 74% | AUC at 24 h [25]: 16700 ng·h/mL | Activity [26]: 110% | Vd [27]: 3.23 L/kg | Activity [28]: 89% | Activity [29]: 80% | Activity [30]: 93% | Activity [31]: 81% | Activity [32]: 97% | Activity (Rattus norvegicus [33]): 3.2 | Activity [34]: 31% | AUC at 24 h [35]: 19600 ng·h/mL | bioavailability at 24 h (in vivo [36]): 121% | Activity [37]: 84%
